Results reported in ChEMBL document CHEMBL1201862, “PubChem BioAssay data set” (2004).
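Growth conditions: 96-well plates. Treatment: test compound, 48 hours, 5 concentrations. Analysis: linear interpolation between bracketing concentrations; unreached endpoints set to highest concentration. Here, GI50 denotes the concentration required for 50% inhibition of growth.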 Calls of active or inactive are those of the source. Rule as the data show it: active = GI50 up to about 1.1 µM and inactive = higher. *1 amine or outer side, *2 acyl side, *3 side chain or, on linkers, in order; H or OH if unused. Where a SMILES comes first, the peptide text is derived from it. Bridges are numbered along the chain shown (N, C = ends). [ ]: non-standard residue; d: D form. The star is where a group is joined. ξ: configuration not given here. ξOrn(4,5-diOH) = O=C(C(CC(O)C(O)N[*:3])N[*:1])[*:2]; ξhTyr(βξ-OH,γξ-OH) = NC(C(=O)O)C(O)C(O)c1ccc(O)cc1; ξPro(3ξ-OH,4ξ-Me) = CC1CNC(C(=O)O)C1O; X55 = CCCCC/C=C/C/C=C\CCCCCCCC(=O)*; Hyp = O=C(O)[CH]1C[CH](O)CN1

Columns and labels:
Assay in all cases: NCI tumour cell line growth inhibition, 48 h
TK-10 = system: TK-10
NCI-H460 = system: NCI-H460
M14 = system: M14
NCI-H23 = system: NCI-H23
BT-549 = system: BT-549
HCT-116 = system: HCT-116
IGROV-1 = system: IGROV-1
A549 = system: A549
MDA-N = system: MDA-N
OVCAR-4 = system: OVCAR-4
SK-MEL-5 = system: SK-MEL-5
MDA-MB-435 = system: MDA-MB-435
CCRF-CEM = system: CCRF-CEM
HOP-62 = system: HOP-62
SF-539 = system: SF-539
SN12C = system: SN12C
SK-MEL-2 = system: SK-MEL-2
NCI-H226 = system: NCI-H226
A498 = system: A498

Structure (SMILES) | GI50 (TK-10) | GI50 (NCI-H460) | GI50 (M14) | GI50 (NCI-H23) | GI50 (BT-549) | GI50 (HCT-116) | GI50 (IGROV-1) | GI50 (A549) | GI50 (MDA-N) | GI50 (OVCAR-4) | GI50 (SK-MEL-5) | GI50 (MDA-MB-435) | GI50 (CCRF-CEM) | GI50 (HOP-62) | GI50 (SF-539) | GI50 (SN12C) | GI50 (SK-MEL-2) | GI50 (NCI-H226) | GI50 (A498)
c1ccc2c(c1)SCCCS2 | > 100 µM (inactive) | > 100 µM (inactive) | > 100 µM (inactive) | > 100 µM (inactive) | > 100 µM (inactive) | > 100 µM (inactive) | > 100 µM (inactive) | > 100 µM (inactive) | > 100 µM (inactive) | > 100 µM (inactive) | > 100 µM (inactive) | > 100 µM (inactive) | > 100 µM (inactive) | > 100 µM (inactive) | > 100 µM (inactive) | > 100 µM (inactive) | – | – | –
CCCCC/C=C/C/C=C\CCCCCCCC(=O)NC1CC(O)C(O)NC(=O)C2C(O)C(C)CN2C(=O)C(C(C)O)NC(=O)C(C(O)C(O)c2ccc(O)cc2)NC(=O)C2CC(O)CN2C(=O)C(C(C)O)NC1=O (stereo not drawn) (X55-[ξOrn(4,5-diOH)]T[Hyp][ξhTyr(βξ-OH,γξ-OH)]T[ξPro(3ξ-OH,4ξ-Me)]; lactam 1-C; configuration not given here) | > 100 µM (inactive) | > 100 µM (inactive) | > 100 µM (inactive) | > 100 µM (inactive) | > 100 µM (inactive) | > 100 µM (inactive) | > 100 µM (inactive) | > 100 µM (inactive) | > 100 µM (inactive) | > 100 µM (inactive) | > 100 µM (inactive) | > 100 µM (inactive) | > 100 µM (inactive) | > 100 µM (inactive) | > 100 µM (inactive) | > 100 µM (inactive) | > 100 µM (inactive) | – | –
CC(C)=NN/C(=N\c1ccc(Cl)cc1)NS(=O)(=O)c1cc(Cl)c(Oc2ccc([N+](=O)[O-])cc2Cl)c(Cl)c1 | > 100 µM (inactive) | > 100 µM (inactive) | 75.9 µM (inactive) | > 100 µM (inactive) | > 100 µM (inactive) | > 100 µM (inactive) | > 100 µM (inactive) | 76.7 µM (inactive) | > 100 µM (inactive) | 67.3 µM (inactive) | > 100 µM (inactive) | 79.3 µM (inactive) | 78.5 µM (inactive) | > 100 µM (inactive) | – | > 100 µM (inactive) | > 100 µM (inactive) | > 100 µM (inactive) | –
NC(=O)C1Cc2cc3c(cc21)OCO3 (centres undefined) | > 100 µM (inactive) | > 100 µM (inactive) | > 100 µM (inactive) | > 100 µM (inactive) | > 100 µM (inactive) | > 100 µM (inactive) | > 100 µM (inactive) | > 100 µM (inactive) | > 100 µM (inactive) | – | > 100 µM (inactive) | – | – | > 100 µM (inactive) | > 100 µM (inactive) | – | – | > 100 µM (inactive) | –
CCOC(=O)/C=C(/C(=O)OCC)n1ccc(N)nc1=O | > 100 µM (inactive) | > 100 µM (inactive) | > 100 µM (inactive) | > 100 µM (inactive) | 61.4 µM (inactive) | > 100 µM (inactive) | > 100 µM (inactive) | > 100 µM (inactive) | > 100 µM (inactive) | 56 µM (inactive) | > 100 µM (inactive) | > 100 µM (inactive) | 25.5 µM (inactive) | > 100 µM (inactive) | > 100 µM (inactive) | > 100 µM (inactive) | > 100 µM (inactive) | > 100 µM (inactive) | –
COC(=O)CCC1=CCC2(SC)C(=O)Nc3cccc1c32 (centres undefined) | > 100 µM (inactive) | > 100 µM (inactive) | > 100 µM (inactive) | > 100 µM (inactive) | > 100 µM (inactive) | > 100 µM (inactive) | > 100 µM (inactive) | > 100 µM (inactive) | – | > 100 µM (inactive) | > 100 µM (inactive) | > 100 µM (inactive) | > 100 µM (inactive) | > 100 µM (inactive) | > 100 µM (inactive) | > 100 µM (inactive) | > 100 µM (inactive) | > 100 µM (inactive) | –
CCN(CC)c1ccc2cc(-c3nc(O)c4ccccc4n3)c(=N)oc2c1 | > 100 µM (inactive) | > 100 µM (inactive) | > 100 µM (inactive) | – | > 100 µM (inactive) | > 100 µM (inactive) | > 100 µM (inactive) | > 100 µM (inactive) | > 100 µM (inactive) | > 100 µM (inactive) | > 100 µM (inactive) | > 100 µM (inactive) | > 100 µM (inactive) | > 100 µM (inactive) | > 100 µM (inactive) | > 100 µM (inactive) | > 100 µM (inactive) | > 100 µM (inactive) | –
CCOC1NC(=O)c2ccccc21 (centres undefined) | > 100 µM (inactive) | > 100 µM (inactive) | > 100 µM (inactive) | > 100 µM (inactive) | > 100 µM (inactive) | > 100 µM (inactive) | > 100 µM (inactive) | > 100 µM (inactive) | > 100 µM (inactive) | > 100 µM (inactive) | > 100 µM (inactive) | > 100 µM (inactive) | > 100 µM (inactive) | > 100 µM (inactive) | > 100 µM (inactive) | > 100 µM (inactive) | – | > 100 µM (inactive) | –
CSc1ccccc1NC1=NCCO1 | > 100 µM (inactive) | > 100 µM (inactive) | > 100 µM (inactive) | > 100 µM (inactive) | – | > 100 µM (inactive) | > 100 µM (inactive) | > 100 µM (inactive) | > 100 µM (inactive) | > 100 µM (inactive) | > 100 µM (inactive) | > 100 µM (inactive) | > 100 µM (inactive) | > 100 µM (inactive) | > 100 µM (inactive) | > 100 µM (inactive) | > 100 µM (inactive) | > 100 µM (inactive) | > 100 µM (inactive)
CN(C)/C=N/c1c2ccccc2nc2ccccc12 | 7.16 µM (inactive) | – | 5.37 µM (inactive) | 3.31 µM (inactive) | 3.06 µM (inactive) | 3.57 µM (inactive) | 4.23 µM (inactive) | 4.61 µM (inactive) | – | 6.64 µM (inactive) | 2.98 µM (inactive) | 4.21 µM (inactive) | 4.21 µM (inactive) | 8.22 µM (inactive) | 2.78 µM (inactive) | 2.53 µM (inactive) | 2.69 µM (inactive) | 1.75 µM (inactive) | 8 µM (inactive)
C/C(=C\COP(=O)(O)OP(=O)(O)O)CC/C=C(\C)CNc1ccccc1 | 39.4 µM (inactive) | > 50 µM (inactive) | > 50 µM (inactive) | – | 9.16 µM (inactive) | > 50 µM (inactive) | 11 µM (inactive) | > 50 µM (inactive) | – | – | 26.9 µM (inactive) | > 50 µM (inactive) | 0.832 µM (active) | > 50 µM (inactive) | > 50 µM (inactive) | > 50 µM (inactive) | > 50 µM (inactive) | > 50 µM (inactive) | –
N#Cc1nnc2c3c(-c4ccc(Cl)cc4)c(C#N)c(O)nc3nn2c1N | 22.6 µM (inactive) | 9.14 µM (inactive) | 6.89 µM (inactive) | 5.81 µM (inactive) | – | 3.51 µM (inactive) | 2.61 µM (inactive) | 21.1 µM (inactive) | 3.61 µM (inactive) | 14.9 µM (inactive) | 6.71 µM (inactive) | 8.69 µM (inactive) | 3.63 µM (inactive) | 4.79 µM (inactive) | 2.88 µM (inactive) | 2.38 µM (inactive) | 9.84 µM (inactive) | 9.55 µM (inactive) | 2.77 µM (inactive)
CCOc1ccc2c(c1)c(CC(=O)O)cn2C | > 100 µM (inactive) | > 100 µM (inactive) | > 100 µM (inactive) | > 100 µM (inactive) | > 100 µM (inactive) | > 100 µM (inactive) | – | > 100 µM (inactive) | – | – | – | > 100 µM (inactive) | > 100 µM (inactive) | > 100 µM (inactive) | > 100 µM (inactive) | > 100 µM (inactive) | > 100 µM (inactive) | > 100 µM (inactive) | –
CO/C(=N\N=C\c1ccc(C(F)(F)F)cc1)c1ccncc1 | > 10 µM (inactive) | > 10 µM (inactive) | > 10 µM (inactive) | > 10 µM (inactive) | > 10 µM (inactive) | > 10 µM (inactive) | – | > 10 µM (inactive) | > 10 µM (inactive) | > 10 µM (inactive) | – | > 10 µM (inactive) | > 10 µM (inactive) | > 10 µM (inactive) | – | > 10 µM (inactive) | > 10 µM (inactive) | > 10 µM (inactive) | –
O=[N+]([O-])/C(Cl)=C(\Nc1ccccc1)C(Cl)=C(Cl)Cl | 56.6 µM (inactive) | 39.4 µM (inactive) | 23.7 µM (inactive) | 44.8 µM (inactive) | – | 36.1 µM (inactive) | 32.4 µM (inactive) | 32.7 µM (inactive) | 36 µM (inactive) | 41.6 µM (inactive) | 23.7 µM (inactive) | 18.5 µM (inactive) | 12.7 µM (inactive) | 29 µM (inactive) | 27.9 µM (inactive) | 33.9 µM (inactive) | 28.8 µM (inactive) | 26.5 µM (inactive) | 30.8 µM (inactive)
CCOP(=O)(CC(=O)C1CC1)OCC | > 100 µM (inactive) | > 100 µM (inactive) | > 100 µM (inactive) | > 100 µM (inactive) | > 100 µM (inactive) | > 100 µM (inactive) | > 100 µM (inactive) | > 100 µM (inactive) | > 100 µM (inactive) | > 100 µM (inactive) | > 100 µM (inactive) | – | > 100 µM (inactive) | > 100 µM (inactive) | > 100 µM (inactive) | > 100 µM (inactive) | > 100 µM (inactive) | > 100 µM (inactive) | –
